The values that follow come from US5652366A, “DI (1R)-(-)camphosulfonic acid) salt, preparation thereof and use thereof” (Rhone-Poulenc Rorer Pharmaceuticals Inc., priority 1995, dated 1997).

One test concerns swine coronary arteries. The experiment in a line: In vitro vasorelaxation in isolated swine coronary arteries (PGF2α-contracted rings). The note with it: Sus scrofa; 50% reduction in tension, 3 μM PGF2α; Table II; read-out: Vasorelaxation in Swine Coronary Artery/IC50. It counts as cell-based. The method, then:
Swine coronary arteries were obtained from a local slaughter house, dissected carefully and cleaned of fat, blood and adhering tissue. Rings approximately 2-3 mm wide were cut and transferred to water-jacketed tissue baths (10 ml) filled with warm (37° C.), oxygenated (O2 /CO2 :95%/5%) Krebs-Henseleit buffer and mounted on L-shaped hooks between stainless steel rods and a force transducer. […] Rings were equilibrated for 90 minutes with frequent buffer changes at a resting tension of 5 g In order to assure optimal tension development, arterial rings were primed twice with 36 mM KCl and once with 10 μm. PGF2α, before being exposed to 3 μM PGF2α. […] Tension achieved with 3 μM PGF2α was considered .equivalent to 100%; all other values were expressed as a percentage of that maximum.

In test [1] the test system is spontaneously hypertensive rat (SHR). The experiment in a line: Oral antihypertensive activity in conscious spontaneously hypertensive rat (SHR). In kind it is in vivo. How it is done: The oral antihypertensive activity of compounds of the invention were examined in conscious spontaneously hypertensive rats. The rats were anesthetized with sodium pentabarbatol (50 mg/kg i.p.). A telemetry transducer was implanted into the rats abdomen via midline incision. The cannula of the transducer was inserted into the abdomenal aorta to allow direct measurement of arterial pressure in the conscious SHR. The transducer was secured to the abdomenal wall. After recovery from surgery (minimum of seven days), the SHR were placed on a receiver plate and the transducer/transmitter was activated. Systolic, diastolic and mean arterial pressure and heart rate were recorded for 1.5 hours in the unrestrained conscious rat to establish a stable baseline. Each rat then received a single dose of the compound of the invention to be tested, or vehicle, and changes in arterial pressure and heart rate were monitored for 20 hours and recorded.

The test system of test [2] is normotensive anesthetized rat. The experiment in a line: In vivo mean arterial pressure and heart rate in normotensive anesthetized rat. The settings on record: iv. The method, then: Normotensive rats were anesthetized with sodium pentobarbital (50 mg/kg, j.p.) and placed on a heated surgical table. Cannulas were inserted into the femoral artery and […] to allow the measurement of arterial pressure and to facilitate the intravenous administration of test compounds. The animals was allowed to equilibrate for 10 minutes after surgery. Mean arterial pressure was continuously measured and recorded and heart rate was monitored using the arterial pressure pulse to trigger a cardiotachometer. After baseline parameters were established and recorded, increasing doses (1, 3, 10, 30, 100, 300 and 1000 μg/kg) of the compound of the invention to be tested were administered intravenously. Maximal changes in the cardiovascular parameters were observed after each dose of the adenosine agonist. Only one compound was administered per rat.

A further test concerns the target T1, A1 adenosine receptor (Rattus norvegicus, UniProt P25099).
T1 sequence (P25099 1-326): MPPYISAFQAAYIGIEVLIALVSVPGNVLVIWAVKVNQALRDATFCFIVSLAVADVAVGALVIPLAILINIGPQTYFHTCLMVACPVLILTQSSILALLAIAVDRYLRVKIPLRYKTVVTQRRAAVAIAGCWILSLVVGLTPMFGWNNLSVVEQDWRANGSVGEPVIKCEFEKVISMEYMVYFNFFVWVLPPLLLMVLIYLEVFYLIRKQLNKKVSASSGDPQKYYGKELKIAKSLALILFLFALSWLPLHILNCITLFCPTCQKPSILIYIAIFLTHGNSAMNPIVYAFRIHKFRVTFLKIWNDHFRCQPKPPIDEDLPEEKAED
The experiment in a line: biochemical. The settings on record: rat whole brain membranes, 3H-CHA; Table II; read-out: Adenosine Receptor Binding Activity/IC50 (nM) A1. How it is done:
Non-specific binding was assessed in the presence of 1 mM theophylline.
The assays were run in glass test tubes in duplicate at 25° C. Once the membranes were added, the tubes were vortexed and incubated at 25° C. for 60 minutes (A1 assay) or 90 minutes (A2 assay) on a rotary shaker. The assay tubes were vortexed halfway through the incubation and again near the end. The assays were terminated by rapid filtration through 2.4 cm GF/B filters using a Brandel Cell Harvestor. The test tubes were washed three times with cold 50 mM tris-HCl (pH 7.7 or 7.4), with filtration being completed within 15 seconds. The damp filter circles were placed in glass scintillation vials filled with 10 ml of Aquasol II (New England Nuclear). The vials were allowed to shake overnight on a rotary shaker and were placed into a liquid scintillation analyzer for two minute counts. IC50 values for receptor binding, i.e. the concentration at which a compound of the invention displaced the radiolabeled standard, were obtained using a curve-fitting computer program (RS/1, Bolt, Beranek and Newman, Boston, Mass.).

The target of the next test is A2 adenosine receptor (Rattus norvegicus, UniProt P30543). Briefly: biochemical. The note with it: rat brain striatum membranes, 3H-CGS 21680; Table II; read-out: Adenosine Receptor Binding Activity/IC50 (nM) A2.
A2 adenosine receptor, sequence (P30543 whole entry): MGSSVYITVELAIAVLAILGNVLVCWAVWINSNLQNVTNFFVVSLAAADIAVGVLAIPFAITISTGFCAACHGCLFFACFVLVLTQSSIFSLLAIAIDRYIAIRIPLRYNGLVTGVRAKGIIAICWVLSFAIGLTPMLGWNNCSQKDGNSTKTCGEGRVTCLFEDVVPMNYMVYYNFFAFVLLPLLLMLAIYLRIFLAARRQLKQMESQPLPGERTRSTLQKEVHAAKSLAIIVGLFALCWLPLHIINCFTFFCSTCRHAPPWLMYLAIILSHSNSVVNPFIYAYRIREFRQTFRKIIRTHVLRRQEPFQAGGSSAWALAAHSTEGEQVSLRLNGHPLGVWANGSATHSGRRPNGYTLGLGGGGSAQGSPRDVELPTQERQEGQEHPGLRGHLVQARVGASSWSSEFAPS
A further test relates to rat adipocytes. Briefly: In vitro lipolysis assay in rat adipocytes (glycerol production). It counts as cell-based. The settings on record: Rattus norvegicus, Adipocyte; for EC50: read-out: EC50 (50% inhibition of glycerol production), unit nM in cell. The method, then:
Adipose tissue is removed from anesthetized rats and rinsed twice in incubation medium (2.09 g sodium bicarbonate and 0.04 g EDTA, disodium salt, in 1 L Krebs buffer). Each rat (300-350 g) yields approximately 4 ml of adipose tissue. The adipose tissue (35 ml) is cut into small pieces with scissors and washed with incubation medium (50 ml). The mixture is poured into the barrel of a 50 ml syringe to which is attached a short piece of clamped tubing instead of a needle. The aqueous phase is allowed to drain. A second wash with incubation medium is passed through the syringe. The tissue is added to 50 ml of collagenase solution (collagenase(90 mg), bovine serum albumin (BSA) (500 mg), and 0.1 M calcium chloride solution (1 ml), in incubation medium (50 ml)) in a 1 L bottle. The mixture is shaken in an environmental at 37° C. for about 60 minutes under an atmosphere of 95% oxygen/5% carbon dioxide to effect digestion of the tissue. The dispersed cells are poured through 2 layers of cheese cloth into a 100 ml plastic beaker. The undigested clumps in the cloth are rinsed once with incubation medium (20 ml). The cells in the beaker are centrifuged in 2 plastic tubes for 30 seconds at room temperature at 300 rpm. The aqueous phase is aspirated from beneath the loosely packed layer of floating fat cells and discarded. The adipocytes are gently poured into a 250 ml plastic beaker containing 100 ml of rinse solution (1 g BSA per 100 ml incubation medium). After gentle stirring the centrifugation step is repeated. Another wash with rinse solution follows. The cells are pooled and their volume is estimated with a graduated cylinder. The adipocytes are diluted in twice their volume of assay buffer (incubation medium (120 ml), BSA (1.2 g), pyruvic acid (13 mg)).
The assay is performed in 20 ml plastic scintillation vials and the total assay volume is 4.2 ml. Assay buffer (2.5 ml), diluted adipocytes (1.5 ml), and a solution of the compound to be tested (12.3 μL) adenosine agonist (12.3 μl; varying concentration) is incubated in the environmental shaker for 15 minutes, then the reaction is started with norepinephrine solution (41.2 μL) (10 nM, in a carrier solution containing water (100 ml), BSA (4 mg), and 0.1 M EDTA (20 I. LL))and adenosine deaminase (1 μg/ml, 41.2 μl). After sixty minutes in the shaker the reaction is terminated by putting the vials on ice. […] The hard lipid layer is removed by aspiration and the aqueous layer is assayed for glycerol (400 μl of sample). The positive control is done in the absence of any adenosine agonist, substituting water in place of the solution to be tested.

[3] abbreviates: dose lowering heart rate by 25%, read-out: Blood Press/Heart Rate Anesthetized Rat HR/ED25.
The mark [4] stands for this setting: dose lowering mean arterial pressure by 25%, read-out: Blood Press/Heart Rate Anesthetized Rat MAP/ED25.

Broadly, the inhibition is the drop in the measured response relative to a control, in per cent.

Read-outs that look alike come from different tables or passages of the source. A value given as a limit tells only on which side of the number the result lay.

On to `CCNC(=O)[C@H]1C[C@@H](n2cnc3c(N[C@H](C)Cc4cccs4)ncnc32)[C@H](O)[C@@H]1O` (single isomer, unassigned) [Example 27], for which the EC50 with swine coronary arteries was 0.043 µM. Also, the “SHR MAP/%” value in test [1] (1 mg/kg, D = decrease) came to 27%. For the same compound, the “SHR HR/%” value in test [1] (1 mg/kg, I = increase) was determined as 1%.
Consider `OC[C@H]1O[C@@H](n2cnc3c(N[C@@H]4CC=CC[C@H]4c4cccs4)ncnc32)[C@H](O)[C@@H]1O` (relative stereo) [Example 4, N6-[trans-2-(thiophen-2-yl)cyclohex-4-en-yl]adenosine], for which, in the test with swine coronary arteries, the EC50 amounted to 0.73 µM. Besides, the ED25 in test [2] (setting [3]) turned out to be 19 µg/kg. The ED25 in test [2] (setting [4]) was found to be 13 µg/kg. Besides, in test [1] (5 mg/kg, D = decrease), the “SHR HR/%” value is reported as 20% and the “SHR MAP/%” value was 28%.
In the case of `OC[C@H]1O[C@@H](n2cnc3c(NCCNc4nc5ccccc5s4)ncnc32)[C@H](O)[C@@H]1O` [Example 9, N^6-[2-(2'-aminobenzothia-zolyl)ethyl]adenosine], the IC50 at A1 adenosine receptor worked out at 4 nM; on A2 adenosine receptor, 1000 nM. Besides, in the test with swine coronary arteries, the EC50 is 11.9 µM. For the same compound, the ED25 in test [2] (setting [3]) turned out to be 4 µg/kg; in test [2] (setting [4]), 5 µg/kg.
For the compound `CCNC(=O)[C@H]1C[C@@H](n2cnc3c(NCCNc4nc5ccccc5s4)ncnc32)[C@H](O)[C@@H]1O` (relative stereo) [Example 29, (±)-N^6-[2-(2'-aminobenzothia-zolyl)ethyl]carbocyclic adenosine-5'-N-ethyl carboxamide], the IC50 on A1 adenosine receptor was 35.5 nM; at A2 adenosine receptor, over 1000 nM. In addition, the EC50 with swine coronary arteries came to 22 µM. The ED25 in test [2] (setting [3]) is 31 µg/kg; in test [2] (setting [4]), 16 µg/kg. Besides, in test [1] (5 mg/kg, D = decrease), the “SHR HR/%” value is listed as 12%. In addition, the “SHR MAP/%” value in test [1] (5 mg/kg, D = decrease) is 18%.
Turning to `Cc1ncsc1CCNc1ncnc2c1ncn2[C@@H]1O[C@H](CO)[C@@H](O)[C@H]1O` [Example 12, N^6-[2-(4'-methylthiazol-5'-yl)-ethyl]adenosine], the results for the IC50 at A1 adenosine receptor and at A2 adenosine receptor were 23 nM and 224 nM, respectively. For the same compound, the EC50 with swine coronary arteries was determined as 0.5 µM. In addition, the ED25 amounted to 17 µg/kg in test [2] (setting [3]) and 4 µg/kg in test [2] (setting [4]).
For `CCNC(=O)[C@H]1C[C@@H](n2cnc3c(N[C@H](C)Cc4ccc(Cl)s4)ncnc32)[C@H](O)[C@@H]1O` [Example 6, (-)-[2S-[2α,3α-dihydroxy-4-β-[N6-[2-(5-chloro-2-thienyl)-(1R)-1-methylethyl]amino]-9-adenyl]cyclopentane]-1-β-N-ethylcarboxamide], the IC50 stood at 2.69 nM on A1 adenosine receptor and 12.9 nM at A2 adenosine receptor. Besides, the figures for the EC50 in the test with swine coronary arteries and with rat adipocytes were 0.021 µM and 0.76 nM, respectively. Further, the “SHR MAP/%” value in test [1] (1 mg/kg, D = decrease) is on record as 18%. The “SHR HR/%” value in test [1] (1 mg/kg, I = increase) came to 7%.
In the case of `CCNC(=O)[C@H]1C[C@@H](n2cnc3c(NCCc4cccs4)ncnc32)[C@H](O)[C@@H]1O` [Example 26, (-)-N^6-[(thiophen-2"-yl)ethan-2-yl]carbocyclic adenosine-5'-N-ethyl carboxamide], the IC50 at A1 adenosine receptor worked out at 87.1 nM; at A2 adenosine receptor, 63.1 nM. Also, the EC50 turned out to be 0.082 µM with swine coronary arteries and 89 nM in the test with rat adipocytes. In addition, the ED25 was over 30 µg/kg in test [2] (setting [3]) and 4 µg/kg in test [2] (setting [4]). Also, the “SHR MAP/%” value in test [1] (2.5 mg/kg, D = decrease) is recorded as 41%. Also, in test [1] (2.5 mg/kg, I = increase), the “SHR HR/%” value is 3%. In addition, the inhibition at 1 µM with rat adipocytes (1 μM, versus positive control, read-out: % Inhibition of glycerol production) was found to be 96%.
`OC[C@H]1O[C@@H](n2cnc3c(NCCc4nccs4)ncnc32)[C@H](O)[C@@H]1O` [Example 13, N^6-[2-(2'-thiazolyl)ethyl]-adenosine]: the figures for the IC50 on A1 adenosine receptor and on A2 adenosine receptor were 41 nM and 191 nM, respectively. Further, the EC50 with swine coronary arteries came out at 0.24 µM. Also, the ED25 in test [2] (setting [3]) was over 10 µg/kg; in test [2] (setting [4]), 3 µg/kg.
`CCNC(=O)[C@H]1C[C@@H](n2cnc3c(NCCc4scnc4C)ncnc32)[C@H](O)[C@@H]1O` (relative stereo) [Example 24, (±)-N^6-[2-(4"-methyl-5"-thiazolyl)thyl]carbocyclic adenosine-5'-N-ethyl carboxamide]: the ED25 in test [2] (setting [3]) was over 10 µg/kg; in test [2] (setting [4]), 6 µg/kg. Besides, the “SHR MAP/%” value in test [1] (5 mg/kg, D = decrease) is reported as 17%. The “SHR HR/%” value in test [1] (5 mg/kg, I = increase) is 6%.
For `OC[C@H]1O[C@@H](n2cnc3c(N[C@@H]4CCCC[C@H]4c4cccs4)ncnc32)[C@H](O)[C@@H]1O` (relative stereo) [Example 7, N^6-[trans-2-(thiophen-2-yl)-cyclohex-1-yl]adenosine], the EC50 in the test on swine coronary arteries stood at 4 µM. The ED25 in test [2] (setting [3]) came out at 18 µg/kg. For the same compound, the ED25 in test [2] (setting [4]) worked out at 6 µg/kg. Further, in test [1] (5 mg/kg, D = decrease), the “SHR HR/%” value is given as 22% and the “SHR MAP/%” value is on record as 45%.
As to `Cc1csc(CNc2ncnc3c2ncn3[C@@H]2O[C@H](CO)[C@@H](O)[C@H]2O)n1` [Example 18, N^6-[2-(4'-methyl-2'-thiazolyl)-methyl]adenosine], the IC50 on A1 adenosine receptor was determined as 166 nM; at A2 adenosine receptor, 52 nM. Also, the EC50 in the test on swine coronary arteries is 0.46 µM. For the same compound, the ED25 is over 10 µg/kg in test [2] (setting [3]) and 2 µg/kg in test [2] (setting [4]).
